# Paper PMC11909975, “Spectroscopic, docking, antiproliferative, and anticancer activity of novel metal derivatives of phenylacetohydrazide Schiff base on different human cancer cell lines” (BMC Chemistry, 2025)
# Legend:
# Type in all cases: cell-based
# [1] = test system: HSF normal human skin fibroblast; test: MTT cytotoxicity assay on normal skin fibroblasts; conditions: for SI (selectivity index), HSF: IC50 normal cells (HSF) / IC50 HSF
# Protocol: (§1) Cells (HeLa, cervical cancer cells; MDA-MB-231, breast cancer cells; A375, skin cancer cells; A549, lung cancer cells; and HSF, normal skin fibroblasts cells) were supplied from Nawah Scientific (Cairo, Egypt). The cells were grown in DMEM medium supplemented with 10% fetal bovine serum (Gibco, Life Technologies Inc., UK) with 1% penicillin/streptomycin solution (Gibco). Cells were maintained at 37°C with 5% CO2.
# (§2) MTT in vitro cytotoxic assay assesses the metabolic activity of viable cells through the reduction of the water-soluble yellow dye by mitochondrial succinate dehydrogenase into the insoluble purple formazan. In brief, cyanochalcone derivatives were dissolved in 100% dimethyl sulphoxide (DMSO, Serva, Heidelberg, Germany) and incubated with cells at the desired concentrations (0, 6.25, 12.5, 25, 50, 100, and 200 μM) for 48 h with the corresponding vehicle as control. 5-Florouracil (5FU) was used as a positive control. Following incubation, old media were discarded and MTT solution (50 μl, 0.5 mg/ml) was added. After 4 h of incubation, the insoluble formed formazan was dissolved in DMSO (100 μl) with a shaking plate for 15 min in a dark place. The absorbance readings were taken at 570 nm by an ELISA reader. Relative cell viability was calculated as a percentage of control untreated cells. The assay was done in four replicates. The dose–response curve was plotted using GraphPad Prism 8, and the values of IC50 (half-maximal inhibitory concentration) were determined using non-linear regression analysis. Finally, the selectivity index was calculated by dividing the IC50 for normal cells by the IC50 of cancer cells.
# (§3) To evaluate the potential usefulness of the Schiff base ligand (H2L) and the reported complexes (Fe, Zn, Cd, Pt) as antitumor agents, five human cell lines (normal Cells; HSF, human colorectal cancer cell line; HCT119, liver carcinoma cell line; HEPG2, human triple-negative breast cancer; MDA, human lung cancer cell line; A549) were treated by the compounds and compared with cis-platin activity as a standard. The IC50 values (concentration that produces 50% inhibition of cell growth) and selectivity index of the H2L ligand, the metal complexes, and cis-platin were tabulated in Table 4.
# [2] = test system: HCT119 (Human Colorectal cancer cell line); test: MTT cytotoxicity assay on colorectal cancer cells; conditions: for SI (selectivity index), HCT119: IC50 normal cells (HSF) / IC50 HCT119
# Protocol: as §1, §2, §3
# [3] = test system: HepG2 (Human Liver cancer cell line); test: MTT cytotoxicity assay on liver cancer cells; conditions: for SI (selectivity index), HEPG2: IC50 normal cells (HSF) / IC50 HEPG2
# Protocol: as §1, §2, §3
# [4] = test system: MDA (Human Breast cancer cell line); test: MTT cytotoxicity assay on triple-negative breast cancer cells; conditions: for SI (selectivity index), MDA: IC50 normal cells (HSF) / IC50 MDA
# Protocol: as §1, §2, §3
# [5] = test system: A549 (Human Lung cancer cell line); test: MTT cytotoxicity assay on lung cancer cells; conditions: for SI (selectivity index), A549: IC50 normal cells (HSF) / IC50 A549
# Protocol: as §1, §2, §3
# [6] = HSF normal skin fibroblasts, MTT, 48 h
# [7] = HCT119 colorectal cancer cells (HCT116 in abstract), MTT, 48 h
# [8] = HEPG2 liver carcinoma cells, MTT, 48 h
# [9] = MDA triple-negative breast cancer cells, MTT, 48 h
# [10] = A549 lung cancer cells, MTT, 48 h
Compound,"IC50 (HSF) [1, 6]","SI (selectivity index), HSF [1]","IC50 (HCT119) [2, 7]","SI (selectivity index), HCT119 [2]","IC50 (HEPG2) [3, 8]","SI (selectivity index), HEPG2 [3]","SI (selectivity index), MDA [4]","IC50 (MDA) [4, 9]","IC50 (A549) [5, 10]","SI (selectivity index), A549 [5]","IC50 ([1]; Homo sapiens, Skin fibroblast, HSF normal skin fibroblasts, MTT, 48 h)","IC50 ([2]; Homo sapiens, HCT-116, HCT119 colorectal cancer cells (HCT116 in abstract), MTT, 48 h)","IC50 ([3]; Homo sapiens, HEPG2 liver carcinoma cells, MTT, 48 h)","IC50 ([4]; Homo sapiens, MDA triple-negative breast cancer cells, MTT, 48 h)","IC50 ([5]; Homo sapiens, A549 lung cancer cells, MTT, 48 h)"
CC(=O)[O-].CC(=O)[O-].[Cd+2].[Cd+2].[O-]c1ccc2ccccc2c1C=NN=C(O)Cc1ccccc1.[O-]c1ccc2ccccc2c1C=NN=C(O)Cc1ccccc1 [Cd complex],5.24 µg/mL,1.00,0.329 µg/mL,15.93,4.16 µg/mL,1.26,0.20,25.7 µg/mL,56.23 µg/mL,0.09,–,–,–,–,–
"N.N.[Cl][Pt][Cl] [Cisplatin, reference compound]",11.07 µg/mL,1.00,2.25 µg/mL,4.92,3.42 µg/mL,3.24,3.45,3.21 µg/mL,2.73 µg/mL,4.05,–,–,–,–,–
O=C(Cc1ccccc1)NN=Cc1c([O-])ccc2ccccc12.O=C(Cc1ccccc1)NN=Cc1c([O-])ccc2ccccc12.[Fe+2] [Fe complex],15.84 µg/mL,1.00,64.01 µg/mL,0.25,40.73 µg/mL,0.39,2.09,7.58 µg/mL,95.49 µg/mL,0.17,–,–,–,–,–
"O=C(Cc1ccccc1)NN=Cc1c(O)ccc2ccccc12 [H2L, Nʹ-((2-hydroxynaphthalen-1-yl)methylene)-2-phenylacetohydrazide]",–,1.00,–,0.32,–,2.88,3.63,–,–,3.63,91.2 µg/mL,285 µg/mL,31.6 µg/mL,25.1 µg/mL,25.1 µg/mL
C1=[N+]2N=C(Cc3ccccc3)[O][Zn-2]23[O+](c2ccc4ccccc4c21)[Zn-2]12[O]C(Cc4ccccc4)=N[N+]1=Cc1c(ccc4ccccc14)[O+]32.CC(=O)O.CC(=O)O (stereo not shown) [Zn complex],–,1.00,–,–,32.35 µg/mL,–,–,89.12 µg/mL,–,–,–,–,–,–,–
